Tests used:
BALB/cJ mice = test: Prepulse inhibition of startle; type: in vivo, mouse
Method: For chronic fluoxetine studies in BALB/cJ mice, 60 male BALB/cJ mice were tested in the OF for 30 min on days 19 or 20 of chronic fluoxetine treatment. Mice were then pretested and tested in the modified FST on days 21 and 22, respectively. Animals were then allowed to adapt to being singly housed, and were trained for NIH on days 25-27. Home cage and novel cage testing occurred on days 28 and 29, respectively. Mice were then assessed for PPI on days 34 or 35.
Studies of subchronic fluoxetine were conducted using separate groups of 60 male BALB/cJ mice to prevent fluoxetine treatment from exceeding one week. One group was tested in the OF after one day of subchronic fluoxetine treatment. Mice were then pretested after 6 and tested after 7 days of subchronic fluoxetine treatment in the modified FST. A second group of BALB/cJ mice began fluoxetine treatment after being singly housed. They were then tested in the NIH test after 4 (home) and 5 (novel) days of subchronic fluoxetine treatment. A third group was tested for PPI after one or two days of subchronic fluoxetine treatment.
Prepulse Inhibition: Startle experiments were performed in MED-Associates chambers. Nonrestrictive Plexiglas cylinders 5 cm in diameter rested on a Plexiglas platform with a transducer amplifier. The sound-dampening isolation chambers were ventilated, well-lit, and equipped with an acoustic stimulator. Data acquisition was performed using Med-Associates software.
Five different trial types were presented in the test session: a 40-msec broadband 120 dB burst (PULSE ALONE trial); three different PREPULSE+PULSE trials in which 20-msec long 3 dB (pp3), 6 dB (pp6), or 12 dB (pp12) stimuli above a 70 dB background preceded the 120 dB pulse by 100 msec (onset to onset), and a NO STIMULUS trial, in which only the background noise was presented. Trials were presented in a pseudo-random order. A variable interval of 10-20 seconds separated trials.
The test session consisted of 62 test trials. The session began with a 10 min acclimation period, followed by four consecutive blocks of test trials. Blocks one and four consisted of six consecutive PULSE ALONE trials, while blocks two and three contained six PULSE ALONE trials, five pp3+p120 trials, five pp6+p120 trials, five pp12+p120 trials, and four NO STIMULUS trials. Analyses were performed using average values for each trial type.
Prepulse Inhibition: PPI was calculated as the averaged startle magnitude caused by PULSE ALONE trials from blocks two and three, minus the averaged startle magnitude caused by the prepulse-pulse trials, all divided by the averaged PULSE ALONE values from blocks two and three. The resulting value was multiplied by 100 and presented as a percent PPI value. Four-factor ANOVAs with fluoxetine and RU24969 as between subjects factors and prepulse intensity and block as within subjects variables assessed percent PPI levels. Interactions were resolved using post-hoc ANOVAs with adjusted p-values, and/or Newman-Keuls post-hoc tests.

animals = animals without drug withdrawal or chronic stress; low dose fluoxetine; cited from earlier work

Q: With `COc1ccc2[nH]cc(C3=CCNCC3)c2c1` [RU24969, 5-methoxy-3(1,2,3,6)tetrahydropyridin-4-yl-1H-indole] as the compound, how does the PPI (BALB/cJ mice; 10 mg/kg RU24969 in mice treated subchronically with fluoxetine (1-2 days)) read?
A: disrupted PPI at each prepulse intensity

Q: What about the “Startle reactivity (blocks two and three)” value (BALB/cJ mice; 10 mg/kg/day RU24969, chronic fluoxetine study) of the same compound?
A: increased overall

Q: What about the PPI (BALB/cJ mice; acute 10 mg/kg RU24969 i.p. in control mice (no fluoxetine), 3, 6, 12 dB prepulse intensities) of the same compound?
A: disrupted PPI in control mice

Q: And the “startle reactivity in the second and third blocks” value (BALB/cJ mice; subchronic fluoxetine study (1-2 days), 10 mg/kg RU24969)?
A: no effects

Q: Which “intracranial self-stimulation reward thresholds” value (animals) does the source give for `CNCCCN1c2ccccc2CCc2ccccc21` [desmethylimipramine] here?
A: no effect

— patent US20050186137A1, “Novelty-induced hypophagia-based assays for identifying agents to treat anxiety and depression” (priority 2003, published 2005)
